Measurements reported in patent publication US11596598B2, “Chlorogenic acid-containing composition for nasal administration” (SICHUAN JIUZHANG BIOLOGICAL SCIENCE AND TECHNOLOGY CO., LTD, priority 2019, dated 2023).

Assays:
Rat C6 glioma cells = test: Inhibitory effect of nasal administration and intraperitoneal injection on glioma in rats; format: in vivo, SD rats; settings: rat C6 brain glioma; for Tumor size: imaging on 21st day
Method: 1.1.3 Positive Control Drug: Temozolomide
40 SD rats, half male and half […], weighing 180-220 g.
Rat C6 glioma cells were incubated in 10% calf serum DMEM complete culture medium, subcultured in a monolayer culture method and allowed to grow to the required number of cells, and then subcultured once before inoculation. Cells in logarithmic growth phase are collected, digested with trypsin, centrifuged, and made to 1×10^4/10 μL cell suspension with Hanks solution, then stored in a refrigerator at 4° C. for inoculation.
Rats were anesthetized by intraperitoneal injection of 10% chloral hydrate, and the hair on the top of the rat's head was cut off and disinfected with iodine. The scalp was cut to expose the skull, and an electronic dental drill was used to open the cranium 1 mm behind the coronal suture and 3 mm to the right of the sagittal suture. 10 μL C6 cell suspension was injected, the bone hole was sealed with bone wax, and the incision was sutured. 5 days after tumor inoculation, the rats were examined by imaging, and tumorigenic rats were selected.
The tumorigenic rats were randomly divided into 8 groups, 5 rats for each group, and the groups included nasal administration groups: chlorogenic acid bulk drug group, the nasal powder group of example 1, the nasal powder group of example 5, the aerosol group of example 6, and the aerosol group of example 7; intraperitoneal injection group of chlorogenic acid, temozolomide positive control drug group, and blank group. For nasal administration, each test drug group received corresponding drugs at a dose of 20 mg/kg chlorogenic acid daily; intraperitoneal injection group of chlorogenic acid was administrated at a dose of 20 mg/kg chlorogenic acid daily; temozolomide positive control group was administered intragastrically at a dose of 25 mg/kg daily. Each test group started to be given the drug on the 6th day after tumor inoculation for 20 consecutive days, and on the 21st day each drug group and the blank group were imaged to check the tumor size.
SPSS software was used to perform t test, analysis of variance and multiple comparisons test.
The post-processing platform was used to measure the tumor volume on the 3DFSPGR sequence, and the tumor inhibition rate was calculated.

telomerase = test: Telomerase detection in nasopharyngeal tissue of rats; format: in vivo, SD rats; settings: rat nasopharyngeal tissue homogenate, Telomerase ELISA-PCR kit, 20th week
Method: SD rats were randomly divided into 8 groups, 5 rats for each group, and the groups included nasal administration groups: chlorogenic acid bulk drug group, the nasal powder group of example 1, the nasal powder group of example 5, the aerosol group of example 6, and the aerosol group of example 7; intraperitoneal injection group of chlorogenic acid, positive control drug group, and blank group. Amongst, for nasal administration, each test drug group received corresponding drugs at a dose of 20 mg/kg chlorogenic acid daily, once a day; intraperitoneal injection group of chlorogenic acid was administrated at a dose of 20 mg/kg chlorogenic acid daily, once a day; retinoic acid positive drug group was administered intragastrically at a dose of 90 mg/kg daily, once a day. Rats in each experimental group were given dinitrosopiperazine and phorbol ester to promote cancer. […] The rats were sacrificed at the 20th week, rhinitis tissues were dissected, histopathology was observed, and telomerase was detected.
Nasopharyngeal tissue homogenate was weighed and centrifuged, and then the supernatant was collected and processed according to Telomerase ELISA-PCR kit instruction (Shanghai Boehringer Mannheim Co.). After obtaining PCR reaction product, the telomerase activity was quantitatively detected, followed by concentration and electrophoresis on polyacrylamide gel, then staining with silver nitrate.

[1] = Bioavailability of nasal administration in beagle dogs (chlorogenic acid content in blood); format: in vivo; settings: male, dog, serum, other: nasal administration, 4 mg/kg chlorogenic acid
Method: • Six male beagle dogs, weighing 10-13 kg.
Six beagle dogs were randomly divided into groups and cross-administered with one week interval.
After fasting for 12 h, test animals were given chlorogenic acid, nasal powder, and aerosol at a dose of 4 mg/kg chlorogenic acid by nasal administration, and one additional dog was injected intravenously with chlorogenic acid at 4 mg/kg. 3 h after administration, dogs were allowed to feed;
10 min, 30 min, 60 min, 90 min, 120 min, 150 min after administration of beagle dogs, 3 mL intravenous blood was collected, heparin was used to anticoagulate, and then 1 mL serum was separated by centrifugation, and stored in a refrigerator at −20° C.
To 100 μL serum, were added methanol-0.2% phosphoric acid (80:20) solution (100 μL), the solution of puerarin in methanol as internal standard (50 mg/mL, 100 μL), and 100 μL methanol. The resultant solution was vortexed for 3 min, allowed to stand, and centrifuged (12000 rpm) for 10 min. The supernatant was collected as the serum test solution.
(§1) Octadecylsilane-bonded silica gel column (150 mm×4.6 mm, 5 μm) and guard column were used; mobile phase A (methanol) and mobile phase B (0.2% phosphoric acid) were used to perform desorption according to a gradient elution procedure; the detection wavelength was 325 nm; the flow rate was 1 mL/min; the column temperature was 40° C.
20 μL of the serum test solution was accurately measured, and injected into the liquid chromatograph, to record the chromatogram. The internal standard method was used to calculate the content of chlorogenic acid in serum with accompanying standard curve.

nasopharyngeal carcinoma = test: Inhibitory effect on nasopharyngeal carcinoma in rats: nasopharyngeal tissue paraffin microscopy; format: in vivo, SD rats; settings: nasal administration, 20 mg/kg chlorogenic acid once a day, 5 rats per group, dinitrosopiperazine/phorbol ester induced, 20th week
From the text: 1.1.3 Positive Control Drug: Retinoic Acid
SD rats, half male and half […], weighing 180-220 g.
SD rats were randomly divided into 8 groups, 5 rats for each group, and the groups included nasal administration groups: chlorogenic acid bulk drug group, the nasal powder group of example 1, the nasal powder group of example 5, the aerosol group of example 6, and the aerosol group of example 7; intraperitoneal injection group of chlorogenic acid, positive control drug group, and blank group. Amongst, for nasal administration, each test drug group received corresponding drugs at a dose of 20 mg/kg chlorogenic acid daily, once a day; intraperitoneal injection group of chlorogenic acid was administrated at a dose of 20 mg/kg chlorogenic acid daily, once a day; retinoic acid positive drug group was administered intragastrically at a dose of 90 mg/kg daily, once a day. Rats in each experimental group were given dinitrosopiperazine and phorbol ester to promote cancer. Dinitrosopiperazine was injected into the armpit at a dose of 40 mg/kg to induce carcinogenesis, twice a week, for a total of 15 weeks. After dinitrosopiperazine was injected for two weeks, phorbol diester was injected at a dose of 50 ng/rat, twice a week, for a total of 15 weeks. The rats were sacrificed at the 20th week, rhinitis tissues were dissected, histopathology was observed, and telomerase was detected.
Rat nasopharyngeal tissues were fixed with 10% formaldehyde, decalcified in Jenkin's solution, further fixed in neutral formalin, and embedded in paraffin to make serial sections, then stained with hematoxylin and eosin and observed under a microscope.

[2] = Blood-brain barrier permeability in rats after nasal administration (chlorogenic acid content in brain tissue); format: in vivo; settings: SD, rat, other: nasal administration, 20 mg/kg chlorogenic acid
Method: 150 SD rats, half male and half […], weighing 180-220 g.
SD rats were randomly divided into 5 groups, 30 rats for each group, and each test drug was administrated nasally at a dose of 20 mg/kg chlorogenic acid. The tissue samples were collected at 10 min, 30 min, 60 min, 90 min, 120 min, and 150 min after administration.
After administration, each experimental group was intraperitoneally injected with 1% pentobarbital sodium (0.2 mL) for deep anesthesia according to the time point, and then a needle was inserted from the left ventricle. The right ventricle was cut, and physiological saline was injected with a syringe for cardiac perfusion until the liver and spleen turned gray, and the brain tissue was taken out.
The brain tissue was placed in a homogenizer, to which was added 0.9% sodium chloride injection according to brain tissue: normal saline=1:1 (w/v) and then homogenized. To 200 μL homogenate, were added 50 mg/mL puerarin internal standard solution (200 μL) and methanol (200 μL), and then the mixture was vortexed and centrifuged. The supernatant was collected as the brain tissue test solution.
as §1
20 μL of the brain tissue test solution was accurately measured, and injected into the liquid chromatograph, to record the chromatogram. The internal standard method was used to calculate the content of chlorogenic acid in […] with accompanying standard curve.

[3] = intraperitoneal injection, 25 mg/kg daily for 20 days
[4] = 10 min after nasal administration
[5] = 30 min after nasal administration
[6] = 60 min after nasal administration
[7] = 90 min after nasal administration
[8] = 120 min after nasal administration
[9] = 150 min after nasal administration
[10] = listed as chlorogenic acid raw material
[11] = nasal administration, 20 mg/kg chlorogenic acid daily for 20 days

**Q.** With `Cn1nnc2c(C(N)=O)ncn2c1=O` [Temozolomide] as the molecule, how does the Tumor inhibition rate (Rat C6 glioma cells; [3]) read?
**A.** Its Tumor inhibition rate is 39.57%.

**Q.** What about the Tumor size (Rat C6 glioma cells; [3]) of the same molecule?
**A.** The Tumor size was 37.63 ± 3.21 mm3.

**Q.** With `O=C(/C=C/c1ccc(O)c(O)c1)O[C@@H]1C[C@](O)(C(=O)O)C[C@@H](O)[C@H]1O` [Chlorogenic acid bulk drug, Chlorogenic acid] as the molecule, how does the telomerase activity (telomerase; nasal administration, 20 mg/kg chlorogenic acid once a day) read?
**A.** Its telomerase activity is 0.56±0.17.

**Q.** What about the concentration at 10 min [1, 4] of the same molecule?
**A.** The concentration at 10 min was 1020 ng/mL.

**Q.** And the concentration at 30 min [1, 5]?
**A.** The concentration at 30 min was 5740 ng/mL.

**Q.** What about the concentration at 60 min [1, 6] of the same molecule?
**A.** Its concentration at 60 min is 2200 ng/mL.

**Q.** What about the concentration at 90 min [1, 7] of the same molecule?
**A.** Its concentration at 90 min is 980 ng/mL.

**Q.** What about the concentration at 120 min [1, 8] of the same molecule?
**A.** Its concentration at 120 min is 520 ng/mL.

**Q.** What about the concentration at 150 min [1, 9] of the same molecule?
**A.** Its concentration at 150 min is 220 ng/mL.

**Q.** And the “Dysplastic tissue (number of rats, nasopharyngeal tissue paraffin microscopy)” value (nasopharyngeal carcinoma)?
**A.** The value was 3.

**Q.** What about the “Normal tissue (number of rats, nasopharyngeal tissue paraffin microscopy)” value (nasopharyngeal carcinoma) of the same molecule?
**A.** Its value is 1.

**Q.** And the “Simple hyperplasia (number of rats, nasopharyngeal tissue paraffin microscopy)” value (nasopharyngeal carcinoma)?
**A.** Its value is 1.

**Q.** What about the “Dysplastic tissue (number of rats, nasopharyngeal tissue paraffin microscopy)” value (nasopharyngeal carcinoma; [10]) of the same molecule?
**A.** The value was “three”.

**Q.** What about the “Simple hyperplasia (number of rats, nasopharyngeal tissue paraffin microscopy)” value (nasopharyngeal carcinoma; [10]) of the same molecule?
**A.** Its value is “one”.

**Q.** What about the concentration at 10 min [2, 4] of the same molecule?
**A.** Its concentration at 10 min is 0 ng/g.

**Q.** And the concentration at 30 min [2, 5]?
**A.** Its concentration at 30 min is 320 ng/g.

**Q.** What about the concentration at 60 min [2, 6] of the same molecule?
**A.** Its concentration at 60 min is 860 ng/g.

**Q.** What about the concentration at 90 min [2, 7] of the same molecule?
**A.** The concentration at 90 min was 650 ng/g.

**Q.** And the concentration at 120 min [2, 8]?
**A.** Its concentration at 120 min is 320 ng/g.

**Q.** What about the concentration at 150 min [2, 9] of the same molecule?
**A.** The concentration at 150 min was 130 ng/g.

**Q.** And the Tumor inhibition rate (Rat C6 glioma cells; [11])?
**A.** The Tumor inhibition rate was 22.35%.

**Q.** And the Tumor size (Rat C6 glioma cells; [11])?
**A.** Its Tumor size is 48.35 ± 4.83 mm3.

**Q.** With `CC1=C(/C=C/C(C)=C/C=C/C(C)=C/C(=O)O)C(C)(C)CCC1` [Retinoic acid] as the molecule, how does the telomerase activity (telomerase; intragastric administration, 90 mg/kg once a day) read?
**A.** Its telomerase activity is 0.22±0.12.
